The text below walks through data of ChEMBL document CHEMBL2074204, “The endothelin antagonist bosentan inhibits the canalicular bile salt export pump: a potential mechanism for hepatic adverse reactions” (Clin Pharmacol Ther, 2001).

As a reminder, the Ki is a dissociation constant, usually derived from enzyme kinetics or from competition with a known ligand.

This assay concerns the target T1, Bile salt export pump (Rattus norvegicus, UniProt O70127).
T1 sequence (O70127 whole entry): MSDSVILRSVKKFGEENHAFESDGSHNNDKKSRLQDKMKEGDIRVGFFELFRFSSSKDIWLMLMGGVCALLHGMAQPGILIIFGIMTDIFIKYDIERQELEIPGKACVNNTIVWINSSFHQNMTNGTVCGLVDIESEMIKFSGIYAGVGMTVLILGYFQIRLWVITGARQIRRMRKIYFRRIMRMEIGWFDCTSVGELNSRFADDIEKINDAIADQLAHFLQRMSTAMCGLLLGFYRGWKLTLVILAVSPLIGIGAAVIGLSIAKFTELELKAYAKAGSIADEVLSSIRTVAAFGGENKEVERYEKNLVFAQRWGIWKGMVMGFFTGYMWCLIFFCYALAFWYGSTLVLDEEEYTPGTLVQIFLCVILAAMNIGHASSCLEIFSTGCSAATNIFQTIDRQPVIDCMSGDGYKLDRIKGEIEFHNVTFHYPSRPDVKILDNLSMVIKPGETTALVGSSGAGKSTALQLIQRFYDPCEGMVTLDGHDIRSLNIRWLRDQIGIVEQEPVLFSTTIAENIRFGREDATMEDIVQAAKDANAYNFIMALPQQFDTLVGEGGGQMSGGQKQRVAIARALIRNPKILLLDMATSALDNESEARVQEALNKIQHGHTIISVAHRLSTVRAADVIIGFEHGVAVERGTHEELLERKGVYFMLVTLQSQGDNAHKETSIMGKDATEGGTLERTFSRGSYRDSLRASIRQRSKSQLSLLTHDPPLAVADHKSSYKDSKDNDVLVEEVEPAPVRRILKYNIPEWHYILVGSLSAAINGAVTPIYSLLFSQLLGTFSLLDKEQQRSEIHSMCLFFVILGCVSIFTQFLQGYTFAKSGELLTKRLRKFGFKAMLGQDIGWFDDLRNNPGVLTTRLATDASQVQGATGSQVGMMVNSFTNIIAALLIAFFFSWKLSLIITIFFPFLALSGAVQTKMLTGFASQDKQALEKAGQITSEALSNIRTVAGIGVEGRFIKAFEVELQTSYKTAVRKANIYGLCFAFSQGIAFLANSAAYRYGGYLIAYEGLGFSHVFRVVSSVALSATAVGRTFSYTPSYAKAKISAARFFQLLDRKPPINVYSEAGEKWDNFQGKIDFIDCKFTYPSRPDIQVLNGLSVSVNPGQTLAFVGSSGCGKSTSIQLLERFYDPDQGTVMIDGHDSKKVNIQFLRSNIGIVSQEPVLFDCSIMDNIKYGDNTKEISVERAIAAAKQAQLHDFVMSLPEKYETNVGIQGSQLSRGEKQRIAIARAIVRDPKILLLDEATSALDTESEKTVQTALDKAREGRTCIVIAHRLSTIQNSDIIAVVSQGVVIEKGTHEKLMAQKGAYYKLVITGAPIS
Nature of the assay: TP_TRANSPORTER: inhibition of Taurocholate uptake in membrane vesicle from Bsep-expressing Sf9-cell. It counts as functional, cell membranes.

In the case of `COc1ccccc1Oc1c(NS(=O)(=O)c2ccc(C(C)(C)C)cc2)nc(-c2ncccn2)nc1OCCO` [BOSENTAN], the Ki was 12 µM.

As for `CC(C)(C)c1ccc(S(=O)(=O)Nc2nc(-c3ncccn3)nc(OCCO)c2Cc2ccccc2O)cc1` [BOSENTAN M2], the Ki was found to be 8.5 µM.
